Measured values reported in US20040082503A1, “Methods for treatment of diabetes using peptide analogues of insulin” (Neurocrine Biosciences, Inc., priority 1998, published 2004).
“And” between values parts separate entries of the source, which are not always exact repeats. Equal values may be shown once.

How the values were obtained:
[1] = system: Insulin specific NOD T cell clone PD12-2.40; experiment: Proliferation of insulin-specific NOD T cell clone PD12-2.40; assay type: cell-based, mouse (NOD); conditions: for S.I. (Stimulation Index): clone PD12-2.40, 50 μM peptide, cpm with peptide/cpm in medium alone, Exp. 1 and 2
Method: (§1) Insulin specific NOD T cell lines were established by culturing lymphocytes isolated from islet-infiltrating populations by in vitro stimulation with either porcine insulin at 25 μg/ml and irradiated NOD islet cell in the presence of irradiated NOD spleen cells as antigen presenting cells and cytokines. To obtain the infiltrating lymphocytes the following procedures were performed (see Wegmann et al., Eur. J. Immunol. 24:1853, 1994): the pancreas from the NOD mouse was digested with collagenase and individual islets were isolated manually. The infiltrating lymphocytes were then obtained by mild trypsin digestion of the islets. The insulin specific T cell lines or clones were propagated by serial stimulation in the presence of NOD spleen cells, porcine insulin and lymphokines. Clones were obtained by limiting dilution of the B chain (9-23) specific T cell lines in the presence of the antigen presenting cells and porcine insulin at 25 μg/ml. Wells with a growing population of cells following limiting dilution were expanded in appropriate medium, and after one cycle of growth were tested for reactivity to the B chain (9-23) peptide of insulin by evaluating the proliferative response.
(§2) Insulin B chain (9-23) (SEQ ID NO:2) specific mouse (NOD) T cell clones were isolated from infiltrated islets as described in Example 2. Peptide analogues with single alanine substitutions were prepared as described in Example 1. The effect of each analogue on T cell proliferation was then evaluated using an assay performed in 96-well flat bottom microtiter plates (see Daniel et al., Eur. J. Immunol. 25:1056, 1995). Briefly 25,000 T cell clones along with 1 million irradiated NOD spleen cells were cultured in the presence of 50 μg/ml of insulin B chain 9-23 peptide or any of the alanine substituted peptides listed below in triplicate sets. The plates were incubated for a total of 72 hours in 7% carbon dioxide atmosphere with a pulse of 1 μCi/well of tritiated thymidine for the last 6-8 hours of culture. Cells were harvested on a glass fiber filter and the associated radioactivity was counted in a liquid scintillation counter. Results are expressed as mean counts per minute of triplicate wells.
(§3) NOD T cell clones were incubated in the presence of 50 μM of either the native B chain (9-23) peptide or NBI-6024. The data in Table 3 represent the mean of triplicate sample±standard error of the mean. Within Table 3, S.I. (Stimulation Index)=proliferation (cpm) in the presence of the peptide/proliferation (cpm) in medium alone.

[2] = system: Insulin B chain (9-23) specific murine T cell clone PD12-4.1; experiment: Proliferation of insulin B chain (9-23) specific murine T cell clone PD12-4.1; assay type: cell-based, mouse (NOD); conditions: clone PD12-4.1, 50 μM peptide, Exp. 1; for S.I. (Stimulation Index): cpm with peptide/cpm in medium alone
Method: as §1, §2, §3

[3] = system: insulin B chain (9-23) responsive T cell lines from diabetic patients; experiment: Proliferation of T cell lines from diabetic patients; assay type: cell-based, human; conditions: for Stimulation Index: 50 μM peptide
Method: FIGS. 4-6 are histograms illustrating the proliferative response (measured in cpm) of T cell lines from different diabetic patients to the native B chain (9-23) peptide or to representative peptide analogues. Peripheral blood mononuclear cells were isolated from diabetic patients and cultured in the presence of insulin B chain (9-23) peptide. After three rounds of restimulation with insulin B chain (9-23), 1×10^5 T-cells and 7×10^4 irradiated autologous PBMCs were added to each well in a round bottom 96-well plate in complete medium. Cells were cultured for 5 days with NBI-6024 (insulin B chain 9-23 with alanine substitutions at positions 16 and 19), insulin B chain (9-23) or medium only. On day 4, the cells were pulsed with ^3H-thymidine and re-cultured for an additional 18 hours. The cultures were then harvested, counted using liquid scintillation, and the data was expressed as the mean counts per minute (cpm) of replicate samples±standard error of the mean (sem).
FIG. 7 is a histogram illustrating the proliferative response (measured in cpm) of a T cell line from a diabetic patient to the native B chain (9-23) peptide or to representative peptide analogues containing alanine substitutions as indicated. Peripheral blood mononuclear cells were isolated from diabetic patients and cultured in the presence of insulin B chain (9-23) peptide. After three rounds of restimulation with insulin B chain (9-23), 1×10^5 T-cells and 7×10^4 irradiated autologous PBMCs were added to each well in a round bottom 96-well plate in complete medium. Cells were cultured for 5 days with analogue, insulin B chain (9-23) or medium only (BKG), as indicated. On day 4, the cells were pulsed with ^3H-thymidine and re-cultured for an additional 18 hours. The cultures were then harvested, counted using liquid scintillation, and the data was expressed as the mean counts per minute (cpm) of replicate samples±standard error of the mean (sem).
Peptide analogues of B chain (9-23) containing alanine substitutions at residues 13, 15, 16 or 17 or the doubly substituted alanine analog A^16, 19 (NBI-6024) were prepared as described in Example 1. T cell lines from diabetic patients were prepared by isolating lymphocytes from the blood of the patient by subjecting the blood to a density gradient separation. Isolated lymphocytes were then cultured in the presence of the insulin B chain (9-23) peptide (10 μM) and recombinant human IL-2 in the presence of 5-10% of autologous serum and irradiated autologous peripheral blood lymphocytes in culture medium. Four to five days later cells were harvested and the cycle repeated for 2 or 3 times.
Proliferation of the T cell line, in response to the native B chain (9-23) peptide (SEQ ID NO:2) or to the peptide analogs, was measured by culturing 25,000 to 100,000 T cells in the presence of 50,000-200,000 irradiated autologous PBLs and different concentrations of the insulin B chain (9-23) peptide or a peptide analogue in triplicate cultures. Following 4-5 days of culture, including the last 18 hours with radioactive thymidine, cells were harvested and the associated radioactivity was counted in a liquid scintillation counter. Results are expressed as mean counts per minute for each of the peptide analogues tested.

[4] = patient number 1 (ID 100) PBLs, CPM with antigen/CPM with medium alone
[5] = patient number 8 (ID 1100) PBLs

| Substance | Response (cpm) of T cell clone PD12-2.40 ([1]; 50 μg/ml peptide, 72 h, 3H-thymidine, no antigen 682 cpm) [cpm] | S.I. (Stimulation Index) ([1]; listed as Insulin B Chain (9-23)) | Proliferative response, Mean cpm ± sem [2] | S.I. (Stimulation Index) [2] | Stimulation Index [3, 4] | Stimulation Index ([3]; patient number 2 (ID 200) PBLs) | Stimulation Index ([3]; patient number 3 (ID 400) PBLs) | Stimulation Index ([3]; patient number 4 (ID 500) PBLs) | Stimulation Index ([3]; patient number 5 (ID 600) PBLs) | Stimulation Index ([3]; patient number 6 (ID 700) PBLs) | Stimulation Index ([3]; patient number 7 (ID 900) PBLs) | Stimulation Index [3, 5] | S.I. (Stimulation Index) [1] | Stimulation of diabetic patients' T cell lines and clones responsive to native insulin B chain (9-23) ([3]; FIGS. 4-7, Table 5) |
| --- | --- | --- | --- | --- | --- | --- | --- | --- | --- | --- | --- | --- | --- | --- |
| Native 9-23: native peptide, residues 9-23 of human insulin B chain (SEQ ID NO:2) (SHLVEALYLVCGERG; Residues 9-23 of human insulin B chain; listed as Homo sapiens) [reference compound] | 32221 | 96.16 and 98.4 | 28,593 ± 4664 cpm | 132.99 | 9.9 | 5.3 | 7.8 | 2.1 | 5.8 | 3.2 | 2.6 | 3.7 | – | – |
| NBI-6024: insulin B chain 9-23 with alanine substitutions at positions 16 and 19 (SHLVEALALVAGERG) | – | – | 566 ± 30 cpm | 2.63 | 0.9 | 1.2 | 1.0 | 0.9 | 1.6 | 1.5 | 0.9 | 0.8 | 1.01 and 1.16 | do not respond |
